Test results taken from patent US11512090B2, “Muscarinic acetylcholine M1 receptor antagonists” (PIPELINE THERAPEUTICS, INC., priority 2018, dated 2022).
Like-named read-outs stand apart in the source and are kept apart here.

Legend:
Format in all cases: cell-based
[1] = target: M3 (Homo sapiens, UniProt P20309); assay: In vitro functional assay of muscarinic acetylcholine receptor activity, M3; details: antagonist IC50 at M3; read-out: M3 IC50
[2] = target: T1, human M1 receptor (Homo sapiens, UniProt P11229); assay: In vitro functional assay of muscarinic acetylcholine receptor activity (aequorin calcium flux, antagonist mode vs EC80 acetylcholine), M1
T1 sequence (P11229 1-460): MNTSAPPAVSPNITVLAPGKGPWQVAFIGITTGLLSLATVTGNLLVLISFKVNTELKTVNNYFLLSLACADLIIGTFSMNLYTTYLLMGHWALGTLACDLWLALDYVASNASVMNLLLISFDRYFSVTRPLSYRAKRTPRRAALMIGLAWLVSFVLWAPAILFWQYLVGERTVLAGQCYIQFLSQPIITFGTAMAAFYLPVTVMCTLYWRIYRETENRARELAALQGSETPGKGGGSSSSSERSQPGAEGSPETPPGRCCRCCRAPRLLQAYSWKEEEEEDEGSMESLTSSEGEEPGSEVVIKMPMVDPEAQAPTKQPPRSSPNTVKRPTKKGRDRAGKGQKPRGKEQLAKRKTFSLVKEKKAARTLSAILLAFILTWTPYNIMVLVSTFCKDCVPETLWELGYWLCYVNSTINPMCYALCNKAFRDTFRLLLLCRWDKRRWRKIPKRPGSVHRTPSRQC
How it was run: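 Antagonism at M1 was measured as a concentration-dependent reduction of the EC80 acetylcholine-evoked aequorin luminescence, from which IC50 was derived. Human M1 CHO-K1 aequorin cells were first loaded with 5 uM coelenterazine h for 4 h and exposed to compound for 30 min at room temperature.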

[3] = target: T2, M2 (Homo sapiens, UniProt P08172); assay: In vitro functional assay of muscarinic acetylcholine receptor activity, M2
T2 sequence (P08172 1-466): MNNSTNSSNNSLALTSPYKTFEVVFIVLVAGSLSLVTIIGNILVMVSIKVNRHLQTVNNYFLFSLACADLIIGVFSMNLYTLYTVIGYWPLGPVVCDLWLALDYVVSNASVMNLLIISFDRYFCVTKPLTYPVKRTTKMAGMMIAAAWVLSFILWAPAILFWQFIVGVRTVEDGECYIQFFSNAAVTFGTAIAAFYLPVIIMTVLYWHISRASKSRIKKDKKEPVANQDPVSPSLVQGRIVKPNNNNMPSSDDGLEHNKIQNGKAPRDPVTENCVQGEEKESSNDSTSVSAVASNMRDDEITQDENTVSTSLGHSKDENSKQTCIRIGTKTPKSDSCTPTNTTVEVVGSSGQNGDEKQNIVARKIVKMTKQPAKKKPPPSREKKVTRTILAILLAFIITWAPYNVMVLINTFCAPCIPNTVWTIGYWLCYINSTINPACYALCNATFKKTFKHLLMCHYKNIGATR

[4] = antagonist IC50 at M2, read-out: M2 IC50
[5] = CHO-K1 cells stably expressing human M1 receptor with Aequorin, decrease in EC80 acetylcholine response, read-out: M1 IC50

M3, sequence (P20309 whole entry): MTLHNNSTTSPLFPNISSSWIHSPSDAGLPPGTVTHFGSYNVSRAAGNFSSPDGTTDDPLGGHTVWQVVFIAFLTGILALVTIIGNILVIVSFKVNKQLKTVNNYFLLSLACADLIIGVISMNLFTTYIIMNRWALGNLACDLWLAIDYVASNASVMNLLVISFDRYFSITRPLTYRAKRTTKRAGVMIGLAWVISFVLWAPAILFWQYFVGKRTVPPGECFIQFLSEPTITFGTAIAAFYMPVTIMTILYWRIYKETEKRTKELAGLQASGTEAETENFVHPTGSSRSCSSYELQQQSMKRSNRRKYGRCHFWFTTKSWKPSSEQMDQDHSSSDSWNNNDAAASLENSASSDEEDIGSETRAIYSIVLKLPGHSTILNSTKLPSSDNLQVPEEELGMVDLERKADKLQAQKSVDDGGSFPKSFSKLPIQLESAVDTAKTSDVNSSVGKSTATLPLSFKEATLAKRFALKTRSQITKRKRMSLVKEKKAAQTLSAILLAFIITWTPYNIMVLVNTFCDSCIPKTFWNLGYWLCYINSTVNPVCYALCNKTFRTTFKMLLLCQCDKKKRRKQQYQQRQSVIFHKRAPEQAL

| IC50 [1] [µM] | IC50 [3, 4] [µM] | IC50 [2, 5] [µM] | Structure (SMILES) | IC50 [2] [µM] | IC50 [3] [µM] |
| --- | --- | --- | --- | --- | --- |
| 1 to 10 | 0.1 to 1 | < 0.1 | Cc1cc(F)cnc1N1CCN(C(=O)CCCc2cccc3ncccc23)CC1 [Example 55, 1-(4-(5-fluoro-3-methylpyridin-2-yl)piperazin-1-yl)-4-(quinolin-5-yl)butan-1-one] | – | – |
| 1 to 10 | 0.1 to 1 | 0.1 to 1 | CC1CN(c2ccncc2)CCN1C(=O)CCCc1cccc2ncccc12 (stereo not drawn) [Example 56, 1-(2-methyl-4-(pyridin-4-yl)piperazin-1-yl)-4-(quinolin-5-yl)butan-1-one] | – | – |
| 1 to 10 | 1 to 10 | 0.1 to 1 | O=C(CCCc1cccc2ncccc12)N1CC2CC1CN2c1ccncc1 (stereo not drawn) [Example 57, 1-(5-(pyridin-4-yl)-2,5-diazabicyclo[2.2.1]heptan-2-yl)-4-(quinolin-5-yl)butan-1-one] | – | – |
| 1 to 10 | 0.1 to 1 | < 0.1 | CC1CN(C(=O)CCCc2cccc3ncccc23)CCN1c1ccncc1 (stereo not drawn) [Example 60, 1-(3-methyl-4-(pyridin-4-yl)piperazin-1-yl)-4-(quinolin-5-yl)butan-1-one] | – | – |
| 1 to 10 | > 10 | 0.1 to 1 | O=C(CCCc1cccc2ncccc12)N1CCN(c2ccncc2F)CC1 [Example 67, 1-(4-(3-fluoropyridin-4-yl)piperazin-1-yl)-4-(quinolin-5-yl)butan-1-one] | – | – |
| 1 to 10 | > 10 | 1 to 10 | N#Cc1cnccc1N1CCN(C(=O)CCCc2cccc3ncccc23)CC1 [Example 68, 4-(4-(4-(quinolin-5-yl)butanoyl)piperazin-1-yl)nicotinonitrile] | – | – |
| 1 to 10 | > 10 | 0.1 to 1 | COc1cc(N2CCN(C(=O)CCCc3cccc4ncccc34)CC2)ccn1 [Example 69, 1-(4-(2-methoxypyridin-4-yl)piperazin-1-yl)-4-(quinolin-5-yl)butan-1-one] | – | – |
| 1 to 10 | 0.1 to 1 | < 0.1 | N#Cc1cc(N2CCN(C(=O)CCCc3cccc4ncccc34)CC2)ccn1 [Example 70, 4-(4-(4-(quinolin-5-yl)butanoyl)piperazin-1-yl)picolinonitrile] | – | – |
| > 10 | 1 to 10 | 0.1 to 1 | Cc1nc2cccc(CCCC(=O)N3CCN(c4ccncc4F)CC3)c2o1 [Example 73, 1-(4-(3-fluoropyridin-4-yl)piperazin-1-yl)-4-(2-methylbenzo[d]oxazol-7-yl)butan-1-one] | – | – |
| > 10 | > 10 | 1 to 10 | COc1cnc2cccc(CCCC(=O)N3CCN(c4ccncc4F)CC3)c2c1 [Example 74, 1-(4-(3-fluoropyridin-4-yl)piperazin-1-yl)-4-(3-methoxyquinolin-5-yl)butan-1-one] | – | – |
| 1 to 10 | 1 to 10 | < 0.1 | C[C@@H]1CN(c2ccncc2Cl)CCN1C(=O)CCCc1cccc2ncccc12 [Example 77, (R)-1-(4-(3-chloropyridin-4-yl)-2-methylpiperazin-1-yl)-4-(quinolin-5-yl)butan-1-one] | – | – |
| 1 to 10 | 1 to 10 | < 0.1 | Cc1ccncc1N1CCN(C(=O)CCCc2cccc3ncccc23)[C@H](C)C1 [Example 78, (R)-1-(2-methyl-4-(4-methylpyridin-3-yl)piperazin-1-yl)-4-(quinolin-5-yl)butan-1-one] | – | – |
| 0.1 to 1 | < 0.1 | < 0.1 | Cc1cc(Cl)cnc1N1CCN(C(=O)CCCc2cccc3ncccc23)[C@H](C)C1 [Example 79, (R)-1-(4-(5-chloro-3-methylpyridin-2-yl)-2-methylpiperazin-1-yl)-4-(quinolin-5-yl)butan-1-one] | – | – |
| 1 to 10 | 0.1 to 1 | < 0.1 | Cc1cc(F)cnc1N1CCN(C(=O)CCCc2cccc3ncsc23)[C@@H](C)C1 [Example 81, (S)-4-(benzo[d]thiazol-7-yl)-1-(4-(5-fluoro-3-methylpyridin-2-yl)-2-methylpiperazin-1-yl)butan-1-one] | – | – |
| 1 to 10 | 1 to 10 | < 0.1 | Cc1cc(F)cnc1N1CCN(C(=O)CCCc2cccc3ncncc23)[C@@H](C)C1 [Example 82, (S)-1-(4-(5-fluoro-3-methylpyridin-2-yl)-2-methylpiperazin-1-yl)-4-(quinazolin-5-yl)butan-1-one] | – | – |
| > 10 | > 10 | 1 to 10 | Cc1cc(F)cnc1N1CCN(C(=O)CCCc2cccc3nccn23)[C@@H](C)C1 [Example 84, (S)-1-(4-(5-fluoro-3-methylpyridin-2-yl)-2-methylpiperazin-1-yl)-4-(imidazo[1,2-a]pyridin-5-yl)butan-1-one] | – | – |

| Structure (SMILES) | IC50 [1] [µM] | IC50 [3, 4] [µM] | IC50 [2, 5] [µM] | IC50 [2] [µM] | IC50 [3] [µM] |
| --- | --- | --- | --- | --- | --- |
| O=C(CCOCc1cccc2cnccc12)N1C[C@H]2CC[C@@H](C1)N2c1ccc(F)cn1 [Example 49, 1-((1R,5S)-8-(5-fluoropyridin-2-yl)-3,8-diazabicyclo[3.2.1]octan-3-yl)-3-(isoquinolin-5-ylmethoxy)propan-1-one] | > 10 | 1 to 10 | – | 0.1 to 1 | – |
| O=C(N1CC(Oc2cccc3ncccc23)C1)N1C[C@H]2CC[C@@H](C1)N2c1ccc(F)cn1 [Example 50, ((1R,5S)-8-(5-fluoropyridin-2-yl)-3,8-diazabicyclo[3.2.1]octan-3-yl)(3-(quinolin-5-yloxy)azetidin-1-yl)methanone] | > 10 | 1 to 10 | 1 to 10 | – | – |
| Cc1cc(F)cnc1N1[C@@H]2CC[C@H]1CN(C(=O)CCCc1cccc3ncccc13)C2 [Example 52, 1-((1R,5S)-8-(5-fluoro-3-methylpyridin-2-yl)-3,8-diazabicyclo[3.2.1]octan-3-yl)-4-(quinolin-5-yl)butan-1-one] | 1 to 10 | – | – | 0.1 to 1 | 0.1 to 1 |
| O=C([C@H]1C[C@H](Oc2cccc3ncsc23)C1)N1CC2CCC(C1)N2c1ccc(F)cn1 [Example 63, ((1r,3R)-3-(benzo[d]thiazol-7-yloxy)cyclobutyl)((1R,5S)-8-(5-fluoropyridin-2-yl)-3,8-diazabicyclo[3.2.1]octan-3-yl)methanone] | > 10 | – | 1 to 10 | – | 0.1 to 1 |
| O=C([C@H]1C[C@H](Oc2cccc3ncsc23)C1)N1CC2CCC(C1)N2c1ncc(Cl)cn1 [Example 64, ((1r,3R)-3-(benzo[d]thiazol-7-yloxy)cyclobutyl)((1R,5S)-8-(5-chloropyrimidin-2-yl)-3,8-diazabicyclo[3.2.1]octan-3-yl)methanone] | 1 to 10 | 1 to 10 | > 10 | – | – |
| Cc1cc(N2C3CCC2CN(C(=O)[C@H]2C[C@H](Oc4cccc5ncsc45)C2)C3)ccn1 [Example 65, ((1r,3R)-3-(benzo[d]thiazol-7-yloxy)cyclobutyl)((1R,5S)-8-(2-methylpyridin-4-yl)-3,8-diazabicyclo[3.2.1]octan-3-yl)methanone] | > 10 | 1 to 10 | 1 to 10 | – | – |
| COc1cnc2cccc(CNCC(=O)N3C[C@H]4CC[C@@H](C3)N4c3ccncc3F)c2c1 [Example 71, 1-((1R,5S)-8-(3-fluoropyridin-4-yl)-3,8-diazabicyclo[3.2.1]octan-3-yl)-2-(((3-methoxyquinolin-5-yl)methyl)amino)ethan-1-one] | 1 to 10 | – | – | 0.1 to 1 | 0.1 to 1 |
| Cc1nc2cccc(CNCC(=O)N3C[C@H]4CC[C@@H](C3)N4c3ccncc3F)c2o1 [Example 72, 1-((1R,5S)-8-(3-fluoropyridin-4-yl)-3,8-diazabicyclo[3.2.1]octan-3-yl)-2-(((2-methylbenzo[d]oxazol-7-yl)methyl)amino)ethan-1-one] | > 10 | 1 to 10 | – | 0.1 to 1 | – |
| O=C(COCc1cccc2nccn12)N1C[C@H]2CC[C@@H](C1)N2c1ccncc1F [Example 75, 1-((1R,5S)-8-(3-fluoropyridin-4-yl)-3,8-diazabicyclo[3.2.1]octan-3-yl)-2-(imidazol[1,2-a]pyridin-5-ylmethoxy)ethan-1-one] | > 10 | 1 to 10 | 1 to 10 | – | – |
| COc1cnc2cccc(COCCC(=O)N3C[C@H]4CC[C@@H](C3)N4c3ccncc3F)c2c1 [Example 76, 1-((1R,5S)-8-(3-fluoropyridin-4-yl)-3,8-diazabicyclo[3.2.1]octan-3-yl)-3-((3-methoxyquinolin-5-yl)methoxy)propan-1-one] | 1 to 10 | 1 to 10 | – | < 0.1 | – |
